# Laboratory results from patent publication US6825230B2, “Spiro and dispiro 1,2,4-trixolane antimalarials” (Medicines for Malaria Venture MMV, priority 2002, dated 2004).
# Read-outs that look alike come from different tables or passages of the source.
# How the values were obtained:
# [1] = Pharmacokinetics in rats (IV and oral dosing); settings: in vivo, po, 25 mg/kg
# Text: Artesunate is listed as a reference compound.
# P. berghei ANKA strain [2] = experiment: Prophylactic activity, single 100 mg/kg po at various times before infection; format: in vivo, Plasmodium berghei; settings: for Prophylactic Activity (%) 24 h: single 100 mg/kg po 24 h before infection; for Prophylactic Activity (%) 0 h: single 100 mg/kg po at 0 h
# Protocol: (§1) Moro NMRI male mice (Fu Albino specific pathogen free) weighing 18±2 g were infected intravenously (i.v.) with 2×10^7 P. berghei ANKA strain-infected erythrocytes from donor mice on day 0 of the experiment. From donor mice with circa 30% parasitemia, heparinized blood was taken and diluted in physiological saline to 10^8 parasitized erythrocytes per ml. An aliquot (0.2 ml) of this suspension was injected i.v. into experimental and control groups of mice. […] Throughout the experiments, mice were kept in groups of three or five animals in Makrolon type II cages in an air-conditioned animal room at 22 to 23° C.
# Prophylactic activities of the compounds were compared after administering po single dose of 100 mg/kg to different groups of five animals at various times before infection. All groups including an untreated control group, were then infected at the same time. Parasitemia was determined for each animal on day 3 post-infection, and percent of reduction of the level of parasitemia compared to levels for animals given no drug is determined.
# [3] = system: ANKA strain of Plasmodium berghei; experiment: Single dose ED50/ED90/ED99 determination in infected mice; format: in vivo
# How it was run: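 Moro SPF or NMRI mice (three per group) infected with P. berghei ANKA were dosed once on day 1 post-infection in SSV (0.5% CMC, 0.5% benzyl alcohol, 0.4% Tween 80, 0.9% NaCl). Parasitemia reduction was scored on day 3; ED values (mg/kg) came from nonlinear fitting.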
# P. berghei ANKA strain [4] = experiment: Onset of action and recrudescence experiment, single 100 mg/kg po; format: in vivo, Plasmodium berghei; settings: single 100 mg/kg po (SSV) on day +3 post-infection; recrudescence = >5% parasitemia; followed up to 60 days; groups of five
# Protocol: The onset of drug action was determined after a single fixed dose of 100 mg/kg (SSV vehicle) po to groups of five animals on day +3 post-infection (day 0).
# as §1
# [5] = system: ANKA strain of P. berghei; experiment: Single dose STI in vivo screen in infected mice; set-up: species or system Plasmodium berghei; settings: for Survival (days) 3 mg/kg SSV po / Activity (%) 3 mg/kg SSV po: single 3 mg/kg po in SSV; for Activity (%) 3 mg/kg SSV po / Activity (%) 10 mg/kg SSV po: percent reduction in parasitemia on day 3; for Survival (days) 10 mg/kg SSV po: single 10 mg/kg po in SSV, untreated 6-7 days; for Activity (%) 10 mg/kg SSV po: single 10 mg/kg po in standard suspending vehicle (SSV) on day 1 post-infection
# P. berghei ANKA strain [6] = experiment: Divided 3x10 mg/kg vs single 1x30 mg/kg po dose in infected mice; format: in vivo, Plasmodium berghei; settings: for Cures 3 × 10 mg/kg p.o. SSV: 10 mg/kg po on days 1, 2, 3; for Cures 3 × 10 mg/kg p.o. SSV / Cures 1 × 30 mg/kg p.o. SSV: cure = survival to day 30 post-infection; for Survival (days) 3 × 10 mg/kg p.o. SSV / Activity (%) 3 × 10 mg/kg p.o. SSV: 10 mg/kg po on days 1, 2, 3 post-infection; for Activity (%) 3 × 10 mg/kg p.o. SSV / Activity (%) 1 × 30 mg/kg p.o. SSV: parasitemia reduction on day 4; for Survival (days) 1 × 30 mg/kg p.o. SSV / Activity (%) 1 × 30 mg/kg p.o. SSV: single 30 mg/kg po on day 1 post-infection; for Cures 1 × 30 mg/kg p.o. SSV: single 30 mg/kg po
# Protocol: as §1
# They were administered per os (p.o.) in a total volume of 0.01 ml per gram of mouse. The activity of the compound was determined by a variety of methods outlined in subsequent sections. Survival time was also recorded, and survival to day 30 post-infection was considered to be a cure.
# The first experiment conducted consisted of administration of a divided 3×10 mg/kg p.o. dose administered on days 1, 2, and 3 post-infection vs. a single 1×30 mg/kg po dose administered on day 1 post-infection. On day 4 post-infection, blood smears of all animals were prepared and stained with Giemsa. […] Compounds were administered orally in the SSV vehicle.
# P. berghei ANKA strain [7] = experiment: Divided 3x3 mg/kg and 3x1 mg/kg po doses in infected mice; format: in vivo, Plasmodium berghei
# How it was run: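 Male NMRI mice were infected i.v. with 2×10^7 P. berghei-parasitized erythrocytes on day 0, then dosed orally in SSV vehicle on days 1, 2 and 3 post-infection.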
# [8] = system: Schistosoma mansoni 21-day-old schistosomules; experiment: Effect on 21-day-old schistosomules in infected mice; format: in vivo
# Protocol: Mice were infected with 100 Schistosoma mansoni cercariae on day 21 post-treatment. Each group was treated per os with trioxolanes at a single dose of 200 mg/kg. […] All groups were killed 4 weeks after treatment and the liver and intestine were removed and separated. The liver and intestine were compressed and alive male and female worms could be seen and counted. The effect of the compounds was evaluated by mean total and female worm burden.
# [9] = system: chloroquine-sensitive NF54 strain of P. falciparum; experiment: In vitro antimalarial semiautomated microdilution assay ([3H]-hypoxanthine incorporation), NF54 strain; format: cell-based, Plasmodium falciparum; settings: Plasmodium falciparum, read-out: IC50 (ng/ml) NF54
# How it was run: (§2)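 IC50 values come from Logit regression of [3H]-hypoxanthine uptake data. Parasites were intraerythrocytic P. falciparum forms taken from asynchronous stock cultures and tested by semiautomated microdilution.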
# [10] = system: chloroquine-resistant K1 strain of P. falciparum; experiment: In vitro antimalarial semiautomated microdilution assay ([3H]-hypoxanthine incorporation), K1 strain; format: cell-based, Plasmodium falciparum; settings: Plasmodium falciparum, read-out: IC50 (ng/ml) K1
# How it was run: as §2
# [11] = system: Schistosoma mansoni adult worms (49-day-old); experiment: Effect on adult schistosomes (49-day-old) in infected mice; format: in vivo
# Protocol: Mice were infected with 100 Schistosoma mansoni cercariae on day 49 post-treatment. Each group was treated per os with OZ compounds at single doses of 200, 400, and 600 mg/kg. Untreated mice served as the control. All groups were killed 4 weeks after treatment and the liver and intestine were removed and separated. The liver and intestine were compressed and alive male and female worms could be seen and counted.
# Schistosoma japonicum = experiment: Effect in mice infected with Schistosoma japonicum; format: in vivo; settings: age of worm 35 days, 400 mg/kg x 1
# [12] = parasitemia reduction on day 3 post-infection
# [13] = single dose po in SSV on day 1 post-infection, parasitemia day 3, nonlinear fitting
# [14] = 3 × 1 mg/kg p.o. SSV on days 1, 2, 3 post-infection
# [15] = 3 × 1 mg/kg p.o. SSV on days 1, 2, 3 post-infection, percent reduction of parasitemia vs control on day 4
# [16] = 3 × 3 mg/kg p.o. SSV on days 1, 2, 3 post-infection
# [17] = 3 × 3 mg/kg p.o. SSV on days 1, 2, 3 post-infection, percent reduction of parasitemia vs control on day 4
# [18] = single 200 mg/kg per os, 21-day-old schistosomules, female worm reduction rate
# [19] = single 200 mg/kg per os, 21-day-old schistosomules, total worm reduction rate
# [20] = single 400 mg/kg per os, 49-day-old adults, total worm reduction rate
# [21] = single 400 mg/kg per os, percentage of dead worm in the liver
Compound,Prophylactic Activity (%) 24 h (P. berghei ANKA strain [2]; [12]) [%],Prophylactic Activity (%) 0 h (P. berghei ANKA strain [2]; [12]) [%],"ED50 [3, 13] [mg/kg]","ED90 [3, 13] [mg/kg]","ED99 [3, 13] [mg/kg]",Time of Recrudescence (P. berghei ANKA strain [4]) [days],Survival (days) 3 mg/kg SSV po [5] [days],Activity (%) 3 mg/kg SSV po [5] [%],Survival (days) 10 mg/kg SSV po [5] [days],Activity (%) 10 mg/kg SSV po [5] [%],Cures 3 × 10 mg/kg p.o. SSV (P. berghei ANKA strain [6]),Survival (days) 3 × 10 mg/kg p.o. SSV (P. berghei ANKA strain [6]) [days],Activity (%) 3 × 10 mg/kg p.o. SSV (P. berghei ANKA strain [6]) [%],Survival (days) 1 × 30 mg/kg p.o. SSV (P. berghei ANKA strain [6]) [days],Activity (%) 1 × 30 mg/kg p.o. SSV (P. berghei ANKA strain [6]) [%],Cures 1 × 30 mg/kg p.o. SSV (P. berghei ANKA strain [6]),Survival (P. berghei ANKA strain [7]; [14]) [days],Activity (%) (P. berghei ANKA strain [7]; [15]),Survival (P. berghei ANKA strain [7]; [16]) [days],Activity (%) (P. berghei ANKA strain [7]; [17]),also measured
"C[C@H]1[C@H](OC(=O)CCC(=O)O)O[C@@H]2O[C@@]3(C)CC[C@H]4[C@H](C)CC[C@@H]1[C@@]24OO3 [AS, artesunate, reference compound]",6.28,92.44,4.7,19,60,8.6,8.0,66,7.0,87,0/5,11,98.62,9,83.83,0/5,6.8,39,9.4,78,Rat Oral Bioavailability 25 mg/kg (DHA) [1]: 21%
"OC(c1cc(C(F)(F)F)nc2c(C(F)(F)F)cccc12)C1CCCCN1 (stereo not shown) [MFQ, mefloquine, reference compound]",100,100,4.0,5.4,6.8,28.0,–,9,17,99.11,0/5,23.3,99.92,20.3,99.94,0/5,6.2,2,12,98,"Duration of prophylactic protection (P. berghei ANKA strain [2]; single 100 mg/kg po): 3 days; Prophylactic Activity (%) 48 h (P. berghei ANKA strain [2]; single 100 mg/kg po 48 h before infection, parasitemia reduction on day 3 post-infection): 99.92%; Prophylactic Activity (%) 72 h (P. berghei ANKA strain [2]; single 100 mg/kg po 72 h before infection, parasitemia reduction on day 3 post-infection): 99.97%"
"CO[C@H]1O[C@@H]2O[C@@]3(C)CC[C@H]4[C@H](C)CC[C@@H]([C@H]1C)[C@@]24OO3 [AM, artemether, reference compound]",0,100,–,–,7.1,12.0,8.7,79,9.4,99.75,–,–,–,–,–,–,7.2,–,9.4,86,"% reduction of schistosomule growth at day 21 after per os application of 200 mg/kg, FWR (%) ([8]; po, 200 mg/kg, 504 h): (n2) 78%; % reduction of schistosomule growth at day 21 after per os application of 200 mg/kg, TWR (%) ([8]; po, 200 mg/kg, 504 h): (n2) 81%; IC50 ([9]; chloroquine-sensitive NF54 strain, 72 h incubation): 0.36 ng/mL; IC50 ([10]; chloroquine-resistant K1 strain, 72 h incubation): 0.45 ng/mL; % reduction of adult worms growth at day 49 after per os application of 400 mg/kg, TWR (%) ([11]; po, 400 mg/kg, 1176 h): 53%; Adult worms day 49, per os 400 mg/kg, DEAD WORM (%) ([11]; po, 400 mg/kg, 1176 h): 29%; ED50 ([3]; Plasmodium berghei, single dose po in SSV on day 1 post-infection, parasitemia day 3, nonlinear fitting, read-out: ED50): 2.2 mg/kg; ED90 ([3]; po): 4.2 mg/kg; Mice without female worm (Schistosoma japonicum): 0/7; MFWB (mean female worm burden) x ± SD (Schistosoma japonicum; control 11.6 ± 2.4): 3.4 ± 1.6; MTWB (mean total worm burden) x ± SD (Schistosoma japonicum; control 26.6 ± 4.2): 10.1 ± 4.4; Activity (%) (P. berghei ANKA strain [7]; po, 1 mg/kg, 96 h): 51%; Cures (P. berghei ANKA strain [7]; po, 3 mg/kg, 720 h): 0\5"
"CCN(CC)CCCC(C)Nc1ccnc2cc(Cl)ccc12 (stereo not shown) [CQ, chloroquine, reference compound]",–,–,–,–,5.9,17.8,8.0,–,9.0,–,0/5,14.3,–,9.5,–,0/5,7.2,–,10,–,"IC50 ([9]; NF54, 72 h): 4.4 ng/mL; IC50 ([10]; K1, 72 h): 76 ng/mL"
O=C(O)CC1CCC2(CC1)OOC1(O2)C2CC3CC(C2)CC1C3 (stereo not shown) [OZ78],–,–,–,9.1,17,11.2,–,–,–,–,–,–,–,–,–,–,–,–,–,–,"% reduction of schistosomule growth at day 21 after per os application of 200 mg/kg, FWR (%) [8, 18]: 87%; % reduction of schistosomule growth at day 21 after per os application of 200 mg/kg, TWR (%) [8, 19]: 82%; % reduction of adult worms growth at day 49 after per os application of 200 mg/kg, TWR (%) ([11]; single 200 mg/kg per os, 49-day-old adults, total worm reduction rate): 24%; Adult worms day 49, per os 200 mg/kg, DEAD WORM (%) ([11]; single 200 mg/kg per os, percentage of dead worm in the liver): 29%; % reduction of adult worms growth at day 49 after per os application of 400 mg/kg, TWR (%) [11, 20]: 0%; Adult worms day 49, per os 400 mg/kg, DEAD WORM (%) [11, 21]: 17%; % reduction of adult worms growth at day 49 after per os application of 600 mg/kg, TWR (%) ([11]; single 600 mg/kg per os, 49-day-old adults, total worm reduction rate): 0%; Adult worms day 49, per os 600 mg/kg, DEAD WORM (%) ([11]; single 600 mg/kg per os, percentage of dead worm in the liver): 14%"
CC1(C)COC2(CCC3(CC2)OOC2(O3)C3CC4CC(C3)CC2C4)OC1 (stereo not shown) [OZ11],–,–,–,6.2,8.2,22.2,–,–,–,–,–,–,–,–,–,–,–,–,–,–,"% reduction of schistosomule growth at day 21 after per os application of 200 mg/kg, FWR (%) [8, 18]: 84%; % reduction of schistosomule growth at day 21 after per os application of 200 mg/kg, TWR (%) [8, 19]: 85%; % reduction of adult worms growth at day 49 after per os application of 400 mg/kg, TWR (%) [11, 20]: 16%; Adult worms day 49, per os 400 mg/kg, DEAD WORM (%) [11, 21]: 4%"
